Assay: Transport of substance applied to plasma treated area through open pores in the SC
Details: applied more than 5 minutes after plasma treatment

With Dextran [10 kDa Dextran] as the substance, how does the “passage through the SC when applied after 5 minutes” value read?
Its value is “no longer passed through the SC”.
